Laboratory results as given in patent publication US20130102638A1, “METHODS AND COMPOSITIONS FOR CONTROLLING ALGAE” (priority 2002, published 2013).

Columns and labels:
[1] = tested on: Oscillatoria; experiment: Picolinafen on axenic Oscillatoria culture, total chlorophyll; format: cell-based; conditions: 10-day exposure
Method: (§1) A stock solution of 50 micrograms picolinafen/L was prepared from technical grade picolinafen. Axenic algal cultures of Scenedesmus and Ankistrodesmus (green phytoplankton), Pithophora and Oedogonium (filamentous green), and Anabaena, Oscillatoria, and Pseudanabaena (blue-green) were grown. Stock material from these cultures was placed in 250 ml of CLII media (a known, defined algal growth medium). Following the addition of the algae, picolinafen was added to the beakers to achieve concentrations of 0, 1.5, 5, 10, 25, and 50 ppb. Each treatment was replicated three times and beakers were placed in Percival growth chambers that were set at 25° C., with a light intensity of 300 micromoles/square meter/second and a 16:8 photoperiod. The algae were given a 10 to 14 day incubation period, and depending on the growth form of the algae, either total chlorophyll, cell counts, or algal biomass were quantified as end points.

[2] = tested on: hydrilla; experiment: Impact on growth of hydrilla; format: in vivo; conditions: at levels showing significant control of the algal species
[3] = tested on: algal species; experiment: Algal culture exposure, overall observations; format: cell-based
Method: as §1

[4] = tested on: Pithophora (filamentous green); experiment: Picolinafen on axenic Pithophora culture, biomass; format: cell-based; conditions: 10-day exposure
Method: as §1

[5] = tested on: Anabaena; experiment: Picolinafen on axenic Anabaena culture, total chlorophyll; format: cell-based; conditions: for Total Chl: 10-day exposure
Method: as §1

[6] = tested on: Scenedesmus; experiment: Picolinafen on axenic Scenedesmus culture, total chlorophyll; format: cell-based; conditions: 10-day exposure
Method: as §1

[7] = tested on: Pseudanabaena (blue-green); experiment: Picolinafen on axenic Pseudanabaena culture, cell counts; format: cell-based; conditions: 10-day exposure
Method: as §1

[8] = tested on: eurasian watermilfoil; experiment: Impact on growth of eurasian watermilfoil; format: in vivo; conditions: at levels showing significant control of the algal species
[9] = tested on: Ankistrodesmus; experiment: Picolinafen on axenic Ankistrodesmus culture, cell counts; format: cell-based; conditions: 10-day exposure
Method: as §1

[10] = tested on: Oedogonium; experiment: Picolinafen on axenic Oedogonium culture, total chlorophyll and biomass; format: cell-based; conditions: 10-day exposure
Method: as §1

[11] = tested on: Spirogyra; experiment: Picolinafen on Spirogyra culture, biomass; format: cell-based; conditions: 10-day exposure
Method: [The source words this procedure for another organism and reports this organism under the same test.] as §1

O=C(Nc1ccc(F)cc1)c1cccc(Oc2cccc(C(F)(F)F)c2)n1 [Picolinafen, N-(4-fluorophenyl)-6-[3-(trifluoromethyl)phenoxy]-2-pyridinecarboxamide]
Total Chl ([1]; 1.5 ppb): 14 μg chl.
Total Chl ([1]; 5 ppb): 10 μg chl.
Total Chl ([1]; 10 ppb): 21 μg chl.
Total Chl ([1]; 25 ppb): 17 μg chl.
Total Chl ([1]; 50 ppb): 13 μg chl.
impact upon the growth of hydrilla [2]: substantially no impact
sensitivity of most algal species ([3]; concentrations of 10 ppb and less): highly sensitive
time to bleaching (visual observations) ([3]; some of the test species): ≤ 12 h
algacidal versus herbicidal activity in the aquatic environment ([3]; two aquatic macrophyte species compared with various algal species): greater algacidal than herbicidal activity
Biomass ([4]; 1.5 ppb): 26.2 mg dry wt./beaker
Biomass ([4]; 5 ppb): 19.1 mg dry wt./beaker
Biomass ([4]; 10 ppb): 20.4 mg dry wt./beaker
Biomass ([4]; 25 ppb): 14.8 mg dry wt./beaker
Biomass ([4]; 50 ppb): 11.4 mg dry wt./beaker
tolerance of Anabaena compared to other algal species [5]: highest level of tolerance
Total Chl ([5]; 1.5 ppb): 880 μg chl.
Total Chl ([5]; 5 ppb): 906 μg chl.
Total Chl ([5]; 10 ppb): 685 μg chl.
Total Chl ([5]; 25 ppb): 526 μg chl.
Total Chl ([5]; 50 ppb): 101 μg chl.
Total Chl ([6]; 1.5 ppb): 2427 (119) μg chl/g
Total Chl ([6]; 5 ppb): 87 (16) μg chl/g
Total Chl ([6]; 10 ppb): 15 (6) μg chl/g
Total Chl ([6]; 25 ppb): 17 (8) μg chl/g
Total Chl ([6]; 50 ppb): 12 (6) μg chl/g
Cell Count ([7]; 1.5 ppb): 2,344 cells/ml
Cell Count ([7]; 5 ppb): 89 cells/ml
Cell Count ([7]; 10 ppb): 52 cells/ml
Cell Count ([7]; 25 ppb): 98 cells/ml
Cell Count ([7]; 50 ppb): 77 cells/ml
impact upon the growth of eurasian watermilfoil [8]: substantially no impact
Cell Count ([9]; 1.5 ppb): 3,025,323 cells/ml
Cell Count ([9]; 5 ppb): 141,246 cells/ml
Cell Count ([9]; 10 ppb): 96,622 cells/ml
Cell Count ([9]; 25 ppb): 87,012 cells/ml
Cell Count ([9]; 50 ppb): 81,706 cells/ml
Biomass ([10]; 1.5 ppb): 0.064 mg dry wt./beaker
Total Chl ([10]; 1.5 ppb): 1522 μg chl.
Biomass ([10]; 5 ppb): 0.027 mg dry wt./beaker
Total Chl ([10]; 5 ppb): 1057 μg chl.
Biomass ([10]; 10 ppb): 0.019 mg dry wt./beaker
Total Chl ([10]; 10 ppb): 342 μg chl.
Biomass ([10]; 25 ppb): 0.011 mg dry wt./beaker
Total Chl ([10]; 25 ppb): 247 μg chl.
Biomass ([10]; 50 ppb): 0.005 mg dry wt./beaker
Total Chl ([10]; 50 ppb): 144 μg chl.
Biomass ([11]; 1.5 ppb): 16.2 mg dry wt./beaker
Biomass ([11]; 5 ppb): 6.9 mg dry wt./beaker
Biomass ([11]; 10 ppb): 3.0 mg dry wt./beaker
Biomass ([11]; 25 ppb): 3.8 mg dry wt./beaker
Biomass ([11]; 50 ppb): 3.3 mg dry wt./beaker
